{"source": "ChEMBL document CHEMBL3046329", "about": "“Sensitivity to silthiofam, tebuconazole and difenoconazole of Gaeumannomyces graminis var. tritici isolates from China” (Pest Manag Sci, 2012)", "type_in_all_cases": "functional, organism-based", "key": {"Gaeumannomyces tritici [1]": {"system": "Gaeumannomyces tritici", "assay": "Antifungal activity against sithiofam-sensitive Gaeumannomyces graminis var. tritici isolate JS08 expressing C2 genetic cluster assessed as reduction in fungal colony diameter after 4 days", "conditions": "isolate JS08, 96 h"}, "Gaeumannomyces tritici [2]": {"system": "Gaeumannomyces tritici", "assay": "Antifungal activity against sithiofam-resistant Gaeumannomyces graminis var. tritici isolate JS07 expressing C1 genetic cluster assessed as reduction in fungal colony diameter after 4 days", "conditions": "isolate JS07, 96 h"}, "Gaeumannomyces tritici [3]": {"system": "Gaeumannomyces tritici", "assay": "Antifungal activity against sithiofam-resistant Gaeumannomyces graminis var. tritici isolate JS05 expressing C1 genetic cluster assessed as reduction in fungal colony diameter after 4 days", "conditions": "isolate JS05, 96 h"}, "Gaeumannomyces tritici [4]": {"system": "Gaeumannomyces tritici", "assay": "Antifungal activity against sithiofam-sensitive Gaeumannomyces graminis var. tritici isolate JS02 expressing C1 genetic cluster assessed as reduction in fungal colony diameter after 4 days", "conditions": "isolate JS02, 96 h"}, "Gaeumannomyces tritici [5]": {"system": "Gaeumannomyces tritici", "assay": "Antifungal activity against sithiofam-resistant Gaeumannomyces graminis var. tritici isolate JS11 expressing C1 genetic cluster assessed as reduction in fungal colony diameter after 4 days", "conditions": "isolate JS11, 96 h"}, "Gaeumannomyces tritici [6]": {"system": "Gaeumannomyces tritici", "assay": "Antifungal activity against sithiofam-resistant Gaeumannomyces graminis var. tritici isolate JS09 expressing C1 genetic cluster assessed as reduction in fungal colony diameter after 4 days", "conditions": "isolate JS09, 96 h"}, "Gaeumannomyces tritici [7]": {"system": "Gaeumannomyces tritici", "assay": "Antifungal activity against sithiofam-sensitive Gaeumannomyces graminis var. tritici isolate HN21 expressing C2 genetic cluster assessed as reduction in fungal colony diameter after 4 days", "conditions": "isolate HN21, 96 h"}, "Gaeumannomyces tritici [8]": {"system": "Gaeumannomyces tritici", "assay": "Antifungal activity against sithiofam-resistant Gaeumannomyces graminis var. tritici isolate HN20 expressing C1 genetic cluster assessed as reduction in fungal colony diameter after 4 days", "conditions": "isolate HN20, 96 h"}, "Gaeumannomyces tritici [9]": {"system": "Gaeumannomyces tritici", "assay": "Antifungal activity against sithiofam-sensitive Gaeumannomyces graminis var. tritici isolate HN19 expressing C2 genetic cluster assessed as reduction in fungal colony diameter after 4 days", "conditions": "isolate HN19, 96 h"}, "Gaeumannomyces tritici [10]": {"system": "Gaeumannomyces tritici", "assay": "Antifungal activity against sithiofam-sensitive Gaeumannomyces graminis var. tritici isolate HN18 expressing C2 genetic cluster assessed as reduction in fungal colony diameter after 4 days", "conditions": "isolate HN18, 96 h"}, "Gaeumannomyces tritici [11]": {"system": "Gaeumannomyces tritici", "assay": "Antifungal activity against sithiofam-sensitive Gaeumannomyces graminis var. tritici isolate HN26 expressing C2 genetic cluster assessed as reduction in fungal colony diameter after 4 days", "conditions": "isolate HN26, 96 h"}, "Gaeumannomyces tritici [12]": {"system": "Gaeumannomyces tritici", "assay": "Antifungal activity against sithiofam-resistant Gaeumannomyces graminis var. tritici isolate HN13 expressing C1 genetic cluster assessed as reduction in fungal colony diameter after 4 days", "conditions": "isolate HN13, 96 h"}, "Gaeumannomyces tritici [13]": {"system": "Gaeumannomyces tritici", "assay": "Antifungal activity against sithiofam-resistant Gaeumannomyces graminis var. tritici isolate HN12 expressing C1 genetic cluster assessed as reduction in fungal colony diameter after 4 days", "conditions": "isolate HN12, HN12, 96 h"}, "Gaeumannomyces tritici [14]": {"system": "Gaeumannomyces tritici", "assay": "Antifungal activity against sithiofam-sensitive Gaeumannomyces graminis var. tritici isolate HN11 expressing C2 genetic cluster assessed as reduction in fungal colony diameter after 4 days", "conditions": "isolate HN11, HN11, 96 h"}, "Gaeumannomyces tritici [15]": {"system": "Gaeumannomyces tritici", "assay": "Antifungal activity against sithiofam-resistant Gaeumannomyces graminis var. tritici isolate HN10 expressing C1 genetic cluster assessed as reduction in fungal colony diameter after 4 days", "conditions": "isolate HN10, 96 h"}, "Gaeumannomyces tritici [16]": {"system": "Gaeumannomyces tritici", "assay": "Antifungal activity against sithiofam-resistant Gaeumannomyces graminis var. tritici isolate HN05 expressing C1 genetic cluster assessed as reduction in fungal colony diameter after 4 days", "conditions": "isolate HN05, 96 h"}, "Gaeumannomyces tritici [17]": {"system": "Gaeumannomyces tritici", "assay": "Antifungal activity against sithiofam-resistant Gaeumannomyces graminis var. tritici isolate HN04 expressing C1 genetic cluster assessed as reduction in fungal colony diameter after 4 days", "conditions": "isolate HN04, 96 h"}, "Gaeumannomyces tritici [18]": {"system": "Gaeumannomyces tritici", "assay": "Antifungal activity against sithiofam-resistant Gaeumannomyces graminis var. tritici isolate HN02 expressing C1 genetic cluster assessed as reduction in fungal colony diameter after 4 days", "conditions": "isolate HN02, 96 h"}, "Gaeumannomyces tritici [19]": {"system": "Gaeumannomyces tritici", "assay": "Antifungal activity against sithiofam-resistant Gaeumannomyces graminis var. tritici isolate HN01 expressing C1 genetic cluster assessed as reduction in fungal colony diameter after 4 days", "conditions": "isolate HN01, 96 h"}, "Gaeumannomyces tritici [20]": {"system": "Gaeumannomyces tritici", "assay": "Antifungal activity against sithiofam-sensitive Gaeumannomyces graminis var. tritici isolate AH08 expressing C2 genetic cluster assessed as reduction in fungal colony diameter after 4 days", "conditions": "isolate AH08, 96 h"}, "Gaeumannomyces tritici [21]": {"system": "Gaeumannomyces tritici", "assay": "Antifungal activity against sithiofam-sensitive Gaeumannomyces graminis var. tritici isolate HN17 expressing C2 genetic cluster assessed as reduction in fungal colony diameter after 4 days", "conditions": "isolate HN17, 96 h"}, "Gaeumannomyces tritici [22]": {"system": "Gaeumannomyces tritici", "assay": "Antifungal activity against sithiofam-resistant Gaeumannomyces graminis var. tritici isolate HN16 expressing C1 genetic cluster assessed as reduction in fungal colony diameter after 4 days", "conditions": "isolate HN16, 96 h"}, "Gaeumannomyces tritici [23]": {"system": "Gaeumannomyces tritici", "assay": "Antifungal activity against sithiofam-sensitive Gaeumannomyces graminis var. tritici isolate HN15 expressing C2 genetic cluster assessed as reduction in fungal colony diameter after 4 days", "conditions": "isolate HN15, 96 h"}, "Gaeumannomyces tritici [24]": {"system": "Gaeumannomyces tritici", "assay": "Antifungal activity against sithiofam-sensitive Gaeumannomyces graminis var. tritici isolate JS01 expressing C1 genetic cluster assessed as reduction in fungal colony diameter after 4 days", "conditions": "isolate JS01, 96 h"}, "Gaeumannomyces tritici [25]": {"system": "Gaeumannomyces tritici", "assay": "Antifungal activity against sithiofam-sensitive Gaeumannomyces graminis var. tritici isolate AH16 expressing C2 genetic cluster assessed as reduction in fungal colony diameter after 4 days", "conditions": "isolate AH16, 96 h"}, "Gaeumannomyces tritici [26]": {"system": "Gaeumannomyces tritici", "assay": "Antifungal activity against sithiofam-sensitive Gaeumannomyces graminis var. tritici isolate AH07 expressing C2 genetic cluster assessed as reduction in fungal colony diameter after 4 days", "conditions": "isolate AH07, 96 h"}, "Gaeumannomyces tritici [27]": {"system": "Gaeumannomyces tritici", "assay": "Antifungal activity against sithiofam-sensitive Gaeumannomyces graminis var. tritici isolate AH05 expressing C2 genetic cluster assessed as reduction in fungal colony diameter after 4 days", "conditions": "isolate AH05, 96 h"}, "Gaeumannomyces tritici [28]": {"system": "Gaeumannomyces tritici", "assay": "Antifungal activity against sithiofam-resistant Gaeumannomyces graminis var. tritici isolate AH02 expressing C1 genetic cluster assessed as reduction in fungal colony diameter after 4 days", "conditions": "isolate AH02, 96 h"}, "Gaeumannomyces tritici [29]": {"system": "Gaeumannomyces tritici", "assay": "Antifungal activity against sithiofam-sensitive Gaeumannomyces graminis var. tritici isolate SD06 expressing C2 genetic cluster assessed as reduction in fungal colony diameter after 4 days", "conditions": "isolate SD06, 96 h"}, "Gaeumannomyces tritici [30]": {"system": "Gaeumannomyces tritici", "assay": "Antifungal activity against sithiofam-sensitive Gaeumannomyces graminis var. tritici isolate SD05 expressing C2 genetic cluster assessed as reduction in fungal colony diameter after 4 days", "conditions": "isolate SD05, 96 h"}, "Gaeumannomyces tritici [31]": {"system": "Gaeumannomyces tritici", "assay": "Antifungal activity against sithiofam-sensitive Gaeumannomyces graminis var. tritici isolate SD03 expressing C2 genetic cluster assessed as reduction in fungal colony diameter after 4 days", "conditions": "isolate SD03, 96 h"}, "Gaeumannomyces tritici [32]": {"system": "Gaeumannomyces tritici", "assay": "Antifungal activity against sithiofam-sensitive Gaeumannomyces graminis var. tritici isolate SD02 expressing C2 genetic cluster assessed as reduction in fungal colony diameter after 4 days", "conditions": "isolate SD02, 96 h"}, "Gaeumannomyces tritici [33]": {"system": "Gaeumannomyces tritici", "assay": "Antifungal activity against sithiofam-resistant Gaeumannomyces graminis var. tritici isolate AH14 expressing C1 genetic cluster assessed as reduction in fungal colony diameter after 4 days", "conditions": "isolate AH14, 96 h"}, "Gaeumannomyces tritici [34]": {"system": "Gaeumannomyces tritici", "assay": "Antifungal activity against sithiofam-resistant Gaeumannomyces graminis var. tritici isolate AH13 expressing C1 genetic cluster assessed as reduction in fungal colony diameter after 4 days", "conditions": "isolate AH13, 96 h"}, "Gaeumannomyces tritici [35]": {"system": "Gaeumannomyces tritici", "assay": "Antifungal activity against sithiofam-resistant Gaeumannomyces graminis var. tritici isolate AH10 expressing C1 genetic cluster assessed as reduction in fungal colony diameter after 4 days", "conditions": "isolate AH10, 96 h"}, "Gaeumannomyces tritici [36]": {"system": "Gaeumannomyces tritici", "assay": "Antifungal activity against sithiofam-sensitive Gaeumannomyces graminis var. tritici isolate SD01 expressing C2 genetic cluster assessed as reduction in fungal colony diameter after 4 days", "conditions": "isolate SD01, 96 h"}, "Gaeumannomyces tritici [37]": {"system": "Gaeumannomyces tritici", "assay": "Antifungal activity against sithiofam-sensitive Gaeumannomyces graminis var. tritici isolate HN32 expressing C2 genetic cluster assessed as reduction in fungal colony diameter after 4 days", "conditions": "isolate HN32, 96 h"}}}
{"smiles": "CC1COC(Cn2cncn2)(c2ccc(Oc3ccc(Cl)cc3)cc2Cl)O1", "note": "(configuration not stated) [DIFENOCONAZOLE]", "values": [{"measurement": "EC50", "setting": "Gaeumannomyces tritici [1]", "result": 0.163, "unit": "µg/mL"}, {"measurement": "EC50", "setting": "Gaeumannomyces tritici [2]", "result": 0.201, "unit": "µg/mL"}, {"measurement": "EC50", "setting": "Gaeumannomyces tritici [3]", "result": 0.213, "unit": "µg/mL"}, {"measurement": "EC50", "setting": "Gaeumannomyces tritici [4]", "result": 0.28, "unit": "µg/mL"}, {"measurement": "EC50", "setting": "Gaeumannomyces tritici [5]", "result": 0.164, "unit": "µg/mL"}, {"measurement": "EC50", "setting": "Gaeumannomyces tritici [6]", "result": 0.13, "unit": "µg/mL"}, {"measurement": "EC50", "setting": "Gaeumannomyces tritici [7]", "result": 0.254, "unit": "µg/mL"}, {"measurement": "EC50", "setting": "Gaeumannomyces tritici [8]", "result": 0.569, "unit": "µg/mL"}, {"measurement": "EC50", "setting": "Gaeumannomyces tritici [9]", "result": 0.326, "unit": "µg/mL"}, {"measurement": "EC50", "setting": "Gaeumannomyces tritici [10]", "result": 0.313, "unit": "µg/mL"}, {"measurement": "EC50", "setting": "Gaeumannomyces tritici [11]", "result": 0.366, "unit": "µg/mL"}, {"measurement": "EC50", "setting": "Gaeumannomyces tritici [12]", "result": 0.223, "unit": "µg/mL"}, {"measurement": "EC50", "setting": "Gaeumannomyces tritici [13]", "result": 0.588, "unit": "µg/mL"}, {"measurement": "EC50", "setting": "Gaeumannomyces tritici [14]", "result": 0.164, "unit": "µg/mL"}, {"measurement": "EC50", "setting": "Gaeumannomyces tritici [15]", "result": 0.375, "unit": "µg/mL"}, {"measurement": "EC50", "setting": "Gaeumannomyces tritici [16]", "result": 0.261, "unit": "µg/mL"}, {"measurement": "EC50", "setting": "Gaeumannomyces tritici [17]", "result": 0.255, "unit": "µg/mL"}, {"measurement": "EC50", "setting": "Gaeumannomyces tritici [18]", "result": 0.236, "unit": "µg/mL"}, {"measurement": "EC50", "setting": "Gaeumannomyces tritici [19]", "result": 0.389, "unit": "µg/mL"}, {"measurement": "EC50", "setting": "Gaeumannomyces tritici [20]", "result": 0.019, "unit": "µg/mL"}, {"measurement": "EC50", "setting": "Gaeumannomyces tritici [21]", "result": 0.175, "unit": "µg/mL"}, {"measurement": "EC50", "setting": "Gaeumannomyces tritici [22]", "result": 1.01, "unit": "µg/mL"}, {"measurement": "EC50", "setting": "Gaeumannomyces tritici [23]", "result": 0.0884, "unit": "µg/mL"}, {"measurement": "EC50", "setting": "Gaeumannomyces tritici [24]", "result": 0.142, "unit": "µg/mL"}, {"measurement": "EC50", "setting": "Gaeumannomyces tritici [25]", "result": 0.126, "unit": "µg/mL"}, {"measurement": "EC50", "setting": "Gaeumannomyces tritici [26]", "result": 0.539, "unit": "µg/mL"}, {"measurement": "EC50", "setting": "Gaeumannomyces tritici [27]", "result": 0.0683, "unit": "µg/mL"}, {"measurement": "EC50", "setting": "Gaeumannomyces tritici [28]", "result": 0.273, "unit": "µg/mL"}, {"measurement": "EC50", "setting": "Gaeumannomyces tritici [29]", "result": 0.18, "unit": "µg/mL"}, {"measurement": "EC50", "setting": "Gaeumannomyces tritici [30]", "result": 0.694, "unit": "µg/mL"}, {"measurement": "EC50", "setting": "Gaeumannomyces tritici [31]", "result": 0.53, "unit": "µg/mL"}, {"measurement": "EC50", "setting": "Gaeumannomyces tritici [32]", "result": 0.335, "unit": "µg/mL"}, {"measurement": "EC50", "setting": "Gaeumannomyces tritici [33]", "result": 0.301, "unit": "µg/mL"}, {"measurement": "EC50", "setting": "Gaeumannomyces tritici [34]", "result": 0.288, "unit": "µg/mL"}, {"measurement": "EC50", "setting": "Gaeumannomyces tritici [35]", "result": 0.128, "unit": "µg/mL"}, {"measurement": "EC50", "setting": "Gaeumannomyces tritici [36]", "result": 0.782, "unit": "µg/mL"}, {"measurement": "EC50", "setting": "Gaeumannomyces tritici [37]", "result": 0.359, "unit": "µg/mL"}]}
